Assay results as given in the supplement of paper PMC10307832.

How the values were obtained:
Assay in all cases: relative viability (nuclei count vs DMSO), 5 days (fraction); higher = more cells survive
[1] = compound: Nc1nc(Nc2ccc3c(c2)CC[C@@H](N2CCCC2)CC3)nn1-c1cc2c(nn1)-c1ccccc1CCC2 [Bemcentinib] + NC(=O)Nc1cc(-c2cccc(F)c2)sc1C(=O)N[C@H]1CCCNC1 [AZD7762] (partner 0.2 µM)
Method in brief: (§1)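 Lung cancer cell lines, seeded in 1536-well plates, were treated the following day by pin tool with a single drug or with five library-drug doses (not always all listed) in √10 steps on top of a fixed anchor-drug dose. Cells were fixed and nuclei stained in one step after 5 days, and nuclei were counted. Relative viability is the nuclei count for treated wells divided by that for vehicle wells, reported as medians of duplicate plates.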

[2] = compound: Nc1nc(Nc2ccc3c(c2)CC[C@@H](N2CCCC2)CC3)nn1-c1cc2c(nn1)-c1ccccc1CCC2 [Bemcentinib] + O=C(c1cc(Cc2n[nH]c(=O)c3ccccc23)ccc1F)N1CCN(C(=O)C2CC2)CC1 [Olaparib] (partner 8 µM)
Method in brief: as §1

[3] = compound: CNC(=O)c1ccccc1Sc1ccc2c(/C=C/c3ccccn3)n[nH]c2c1 [Axitinib] + CC(=O)Nc1cccc(-n2c(=O)n(C3CC3)c(=O)c3c(Nc4ccc(I)cc4F)n(C)c(=O)c(C)c32)c1 [Trametinib] (partner 0.02 µM)
Method in brief: as §1

[4] = compound: CC1=CC=C(C=C1)C(=O)CN2C3=C(CCCC3)SC2=N [Pifithrin_alpha] + CC(=O)Nc1cccc(-n2c(=O)n(C3CC3)c(=O)c3c(Nc4ccc(I)cc4F)n(C)c(=O)c(C)c32)c1 [Trametinib] (partner 0.02 µM)
Method in brief: as §1

Cell Line | relative viability ([1]; first compound 0.04 µM) | relative viability ([1]; first compound 0.1265 µM) | relative viability ([1]; first compound 0.4 µM) | relative viability ([1]; first compound 1.265 µM) | relative viability ([1]; first compound 4 µM) | relative viability ([2]; first compound 0.04 µM) | relative viability ([2]; first compound 0.1265 µM) | relative viability ([2]; first compound 0.4 µM) | relative viability ([2]; first compound 1.265 µM) | relative viability ([2]; first compound 4 µM) | relative viability ([3]; first compound 0.005 µM) | relative viability ([3]; first compound 0.01581 µM) | relative viability ([3]; first compound 0.05 µM) | relative viability ([3]; first compound 0.1581 µM) | relative viability ([3]; first compound 0.5 µM) | relative viability ([4]; first compound 1 µM) | relative viability ([4]; first compound 3.162 µM) | relative viability ([4]; first compound 10 µM) | relative viability ([4]; first compound 100 µM) | relative viability ([4]; first compound 31.62 µM)
LU99A | 0.377 | 0.375 | 0.394 | 0.344 | 0.35 | 0.27 | 0.259 | 0.244 | 0.259 | 0.286 | 0.547 | 0.463 | 0.534 | 0.541 | 0.511 | 0.458 | 0.601 | 0.573 | 0.575 | 
LXF-289 | 1.16 | 1.22 | 1.09 | 1.19 | 1.2 | 1.13 | 1.16 | 1.13 | 1.06 | 1.04 | 0.703 | 0.644 | 0.683 | 0.684 | 0.701 | 0.696 | 0.731 | 0.716 | 0.718 | 0.587
NCI-H23 | 0.282 | 0.245 | 0.208 | 0.201 | 0.212 | 0.246 | 0.338 | 0.381 | 0.308 | 0.298 | 0.45 | 0.373 | 0.433 | 0.405 | 0.368 | 0.288 | 0.314 | 0.447 | 0.358 | 0.353
NCI-H322M | 0.545 | 0.564 | 0.593 | 0.681 | 0.617 | 0.796 | 0.84 | 0.844 | 0.854 | 0.839 | 0.577 | 0.458 | 0.48 | 0.467 | 0.486 | 0.436 | 0.307 | 0.514 | 0.539 | 0.509
NCI-H358 | 0.527 | 0.516 | 0.562 | 0.411 | 0.602 | 0.59 | 0.622 | 0.598 | 0.593 | 0.669 | 0.137 | 0.13 | 0.144 | 0.125 | 0.14 | 0.138 | 0.124 | 0.129 | 0.121 | 0.12
NCI-H441 | 1.33 | 1.29 | 1.1 | 1.41 | 1.29 | 0.606 | 0.665 | 0.53 | 0.537 | 0.402 | 0.521 | 0.404 | 0.331 | 0.485 | 0.567 | 0.421 | 0.474 | 0.409 | 0.333 | 
NCI-H460 | 0.678 | 0.694 | 0.668 | 0.581 | 0.407 | 0.433 | 0.407 | 0.555 | 0.52 | 0.473 | 0.165 | 0.177 | 0.188 | 0.297 | 0.253 | 0.0943 | 0.075 | 0.155 | 0.103 | 0.0707
NCI-H522 | 0.872 | 0.766 | 0.771 | 0.949 | 0.849 | 0.739 | 0.696 | 0.593 | 0.556 | 0.652 | 0.87 | 0.752 | 0.853 | 0.633 | 0.81 | 0.61 | 0.754 | 0.743 | 0.618 | 0.693
NCI-H596 | 1.09 | 1.13 | 1.2 | 0.941 | 1.12 | 0.605 | 0.749 | 0.759 | 0.613 | 0.773 | 0.881 | 0.625 | 0.835 | 0.8 | 0.895 | 0.762 | 0.675 | 0.76 | 0.675 | 0.587
NCI-H647 | 0.346 | 0.539 | 0.498 | 0.511 | 0.31 | 0.479 | 0.666 | 0.698 | 0.602 | 0.624 | 0.587 | 0.484 | 0.49 | 0.407 | 0.506 | 0.391 | 0.335 | 0.332 | 0.496 | 0.344
NCI-H727 | 0.527 | 0.575 | 0.483 | 0.495 | 0.569 | 0.678 | 0.618 | 0.813 | 0.52 | 0.747 | 0.375 | 0.369 | 0.402 | 0.377 | 0.414 | 0.374 | 0.403 | 0.388 | 0.361 | 0.409
NCI-H838 | 0.942 | 0.975 | 1.02 | 0.998 | 0.917 | 0.795 | 0.933 | 0.915 | 0.864 | 0.774 | 0.565 | 0.486 | 0.584 | 0.52 | 0.572 | 0.458 | 0.425 | 0.452 | 0.391 | 0.391
NCI-H1355 | 0.742 | 0.742 | 0.78 | 0.834 | 0.576 | 0.748 | 0.811 | 0.766 | 0.773 | 0.75 | 0.409 | 0.423 | 0.397 | 0.417 | 0.493 | 0.39 | 0.362 | 0.298 | 0.282 | 0.31
